In this experiment the test system is B6C3F1 mice, B16 melanoma ip, median survival T/C. Description: NCI In Vivo Anticancer Drug Screen. Data for tumor model B16 Melanoma (intraperitoneal) in B6C3F1 mice. The settings on record: endpoint: median survival time, schedule: Q01DX009 (ip), higher = longer survival. In short, it runs like this:
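Antitumor effect was judged in mice with transplanted tumors by dividing the treated group's survival measure by that of vehicle controls.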

[1] abbreviates: dose: 100.0 mg/kg/injection, vehicle: saline with Tween-80.
Where [2] appears, read: dose: 200.0 mg/kg/injection, vehicle: saline with Tween-80.
The mark [3] stands for this setting: dose: 400.0 mg/kg/injection, vehicle: saline with Tween-80.
Where [4] appears, read: dose: 6.25 mg/kg/injection, vehicle: saline with Tween-80.
Setting [5] is: dose: 12.5 mg/kg/injection, vehicle: saline with Tween-80.
The mark [6] stands for this setting: dose: 25.0 mg/kg/injection, vehicle: saline with Tween-80.
[7] abbreviates: dose: 50.0 mg/kg/injection, vehicle: saline with Tween-80.
[8] abbreviates: dose: 12.5 mg/kg/injection, vehicle: Klucel (hydroxypropylcellulose) (HPC).
Where [9] appears, read: dose: 25.0 mg/kg/injection, vehicle: Klucel (hydroxypropylcellulose) (HPC).
The mark [10] stands for this setting: dose: 50.0 mg/kg/injection, vehicle: Klucel (hydroxypropylcellulose) (HPC).
Where [11] appears, read: dose: 100.0 mg/kg/injection, vehicle: Klucel (hydroxypropylcellulose) (HPC).
The mark [12] stands for this setting: dose: 200.0 mg/kg/injection, vehicle: Klucel (hydroxypropylcellulose) (HPC).
Setting [13] is: dose: 400.0 mg/kg/injection, vehicle: Klucel (hydroxypropylcellulose) (HPC).
[14] abbreviates: dose: 0.78 mg/kg/injection, vehicle: Klucel (hydroxypropylcellulose) (HPC).
Where [15] appears, read: dose: 1.56 mg/kg/injection, vehicle: Klucel (hydroxypropylcellulose) (HPC).
Where [16] appears, read: dose: 3.12 mg/kg/injection, vehicle: Klucel (hydroxypropylcellulose) (HPC).
[17] abbreviates: dose: 6.25 mg/kg/injection, vehicle: Klucel (hydroxypropylcellulose) (HPC).

“And” between values parts separate entries of the source, which are not always exact repeats. Identical values can stand only once. Inconclusive results and toxic doses are left out. Where a SMILES comes first, the peptide text is derived from it.

Results on 19 compounds are retold here after PubChem BioAssay AID200 (DTP/NCI, 2004).

As for `Cc1cc(=NO)cc(C)n1O`, the T/C (dose: 25.0 mg/kg/injection, vehicle: distilled water + alcohol) is 109 % of control and 94 % of control; the T/C (dose: 50.0 mg/kg/injection, vehicle: distilled water + alcohol) is 98 % of control and 105 % of control; the T/C (dose: 100.0 mg/kg/injection, vehicle: distilled water + alcohol) is 87 % of control and 92 % of control; the T/C (dose: 200.0 mg/kg/injection, vehicle: distilled water + alcohol) was 92 % of control; the T/C (dose: 400.0 mg/kg/injection, vehicle: distilled water + alcohol) is 86 % of control and 89 % of control.

In the case of `N#CCCCCCCCCCCC(=O)O`, the T/C reads like this: under setting [1], 93 % of control; under setting [2], 96 % of control; under setting [3], 99 % of control.

Take `CC(C)C1OC(=O)/C=C/C=C/C=C/C=C/C=C/CC(O)C(C)C(O)CC(O)CC(O)CC(O)CC(O)CC(O)CC(O)/C=C/C1C` (configuration not stated): the T/C is, setting by setting: (dose: 1.56 mg/kg/injection, vehicle: saline) 101 % of control; (dose: 3.12 mg/kg/injection, vehicle: saline) 100 % of control; (dose: 6.25 mg/kg/injection, vehicle: saline) 102 % of control.

For the compound `C/C(=N/NC(N)=S)c1ccc2ccccc2c1`, the T/C is, setting by setting: under setting [4], 106 % of control; under setting [5], 108 % of control; under setting [6], 108 % of control.

Turning to `CC1c2ccccc2CC(CCN(C)C)c2ccccc21` (configuration not stated), the T/C by setting is: under setting [4], 104 % of control; under setting [5], 98 % of control; under setting [6], 99 % of control; under setting [7], 95 % of control.

With `C[Si](C)(C)OSc1ccccc1[N+](=O)[O-]`, the T/C runs as follows: under setting [8], 108 % of control; under setting [9], 110 % of control; under setting [10], 113 % of control; under setting [11], 112 % of control; under setting [12], 103 % of control; under setting [13], 89 % of control.

On to `CCCC[C@H]1C(=O)O[C@H](C)[C@H](NC(=O)c2cccc(NC=O)c2O)C(=O)O[C@@H](C)[C@@H]1OC(=O)CC(C)C`, for which the T/C was 96 % of control (dose: 0.12 mg/kg/injection, vehicle: Klucel (hydroxypropylcellulose) (HPC)); 96 % of control (dose: 0.25 mg/kg/injection, vehicle: Klucel (hydroxypropylcellulose) (HPC)); 91 % of control and 98 % of control (dose: 0.5 mg/kg/injection, vehicle: Klucel (hydroxypropylcellulose) (HPC)).

With `CC(C)C(NC(=O)CCNC(=O)OCc1ccccc1)C(=O)O` (configuration not stated), the T/C reads like this: under setting [11], 100 % of control; under setting [12], 116 % of control; under setting [13], 87 % of control.

On to `O=C1C(=O)c2cccnc2-c2ncccc21`, for which the T/C by setting is: (dose: 0.75 mg/kg/injection, vehicle: Klucel (hydroxypropylcellulose) (HPC)) 104 % of control; under setting [14], 102 % of control; (dose: 1.5 mg/kg/injection, vehicle: Klucel (hydroxypropylcellulose) (HPC)) 115 % of control and 107 % of control; under setting [15], 115 % of control and 98 % of control; (dose: 3.0 mg/kg/injection, vehicle: Klucel (hydroxypropylcellulose) (HPC)) 119 % of control and 92 % of control and 98 % of control; under setting [16], 114 % of control and 100 % of control. Also, the T/C is 113 % of control and 87 % of control and 108 % of control (dose: 6.0 mg/kg/injection, vehicle: Klucel (hydroxypropylcellulose) (HPC)); 109 % of control under setting [17].

With `CCOC(=O)Nc1cc2c(c(N)n1)N=C(c1ccccc1)CO2`, the T/C runs as follows: under setting [6], 112 % of control and 118 % of control; under setting [7], 111 % of control and 118 % of control; under setting [1], 115 % of control and 124 % of control; (dose: 103.68 mg/kg/injection, vehicle: saline with Tween-80) 106 % of control; under setting [3], 150 % of control and 198 % of control; (dose: 480.0 mg/kg/injection, vehicle: saline with Tween-80) 165 % of control. Moreover, under “dose: 800.0 mg/kg/injection, vehicle: saline with Tween-80”, the T/C was 172 % of control.

For `Cc1cnc(/C=N\NC(N)=S)c2cccc(N)c12`, the T/C (dose: 3.0 mg/kg/injection, vehicle: saline with Tween-80) is 108 % of control and the T/C (dose: 6.0 mg/kg/injection, vehicle: saline with Tween-80) was 116 % of control.

For the compound `O=C(O)CCC(NC(=O)OCc1ccccc1)C(=O)NCC(=O)O` (configuration not stated) (HELM PEPTIDE1{[O=C(OCc1ccccc1)[*:2]].[O=C(O)CCC(N[*:1])C(=O)[*:2]].G}$$$$V2.0), the T/C was 102 % of control (dose: 25.0 mg/kg/injection, vehicle: saline); 97 % of control (dose: 50.0 mg/kg/injection, vehicle: saline); 107 % of control (dose: 100.0 mg/kg/injection, vehicle: saline); 113 % of control (dose: 200.0 mg/kg/injection, vehicle: saline); 112 % of control (dose: 400.0 mg/kg/injection, vehicle: saline).

Consider `CCOC(=O)N1CCN(CCCCCOc2ccccc2C2CCCCC2)CC1`, for which the T/C by setting is: under setting [5], 108 % of control; under setting [6], 96 % of control; under setting [7], 87 % of control.

`C=C(C)C(=O)N(C)C(C)C(=O)OC1CC(=O)N(C)c2cc(cc(OC)c2Cl)C(OC)C(C)=C/C=C/C(OC)C2(O)CC(OC(=O)N2)C(C)C2OC12C` (configuration not stated): the T/C runs as follows: (dose: 8.0 micrograms/kg/injection, vehicle: saline) 169 % of control; (dose: 16.0 micrograms/kg/injection, vehicle: saline) 182 % of control; (dose: 32.0 micrograms/kg/injection, vehicle: saline) 180 % of control.

`COc1ccc(Cl)[n+]([O-])n1`: the T/C is, setting by setting: under setting [16], 93 % of control; under setting [17], 88 % of control; under setting [8], 94 % of control; under setting [9], 99 % of control; under setting [10], 93 % of control.

Consider `c1ccc2sc(SSN3CC4CCC(CC4)C3)nc2c1`, for which the T/C runs as follows: under setting [5], 95 % of control and 108 % of control; under setting [6], 93 % of control and 102 % of control; under setting [7], 87 % of control and 102 % of control; under setting [1], 97 % of control; under setting [2], 87 % of control; under setting [3], 88 % of control.

`[N-]=[N+]=C1N=CN=C1c1ncn[nH]1`: the T/C runs as follows: under setting [16], 104 % of control; under setting [17], 113 % of control; under setting [8], 121 % of control.

For the compound `CCOC(=O)c1ccc(NC(=O)Nc2nncs2)cc1`, the T/C is 100 % of control (dose: 6.25 mg/kg/injection, vehicle: distilled water + Tween-80); 110 % of control (dose: 12.5 mg/kg/injection, vehicle: distilled water + Tween-80); 115 % of control (dose: 25.0 mg/kg/injection, vehicle: distilled water + Tween-80); 121 % of control (dose: 50.0 mg/kg/injection, vehicle: distilled water + Tween-80); 121 % of control (dose: 100.0 mg/kg/injection, vehicle: distilled water + Tween-80); 105 % of control (dose: 200.0 mg/kg/injection, vehicle: distilled water + Tween-80).

As to `Clc1ccc(C[P+](c2ccccc2)(c2ccccc2)c2ccccc2)cc1Cl`, the T/C under setting [14] is 99 % of control, the T/C under setting [15] was 107 % of control, the T/C under setting [16] is 103 % of control and the T/C under setting [8] was 88 % of control.
